In patent publication US12528814B2, “Bifunctional degraders of interleukin-1 receptor-associated kinases and therapeutic use thereof” (NURIX THERAPEUTICS, INC., priority 2020, dated 2026) one finds Dmax, DC50 and IC50 data, which are given here for 13 molecules.

SMILES strings stand for the structures. Like-named read-outs stand apart in the source and are kept apart here.

Assay [1] addresses T1, IRAK4 (Homo sapiens (Human), UniProt Q9NWZ3). The experiment in a line: IRAK4 Degradation HiBiT Assay. The following applies: HiBiT-tagged Jurkat cells, 4 hrs; for Dmax: Jurkat; for DC50: read-out: Cellular IRAK4 HiBiT: DC50.
Target sequence in this assay (Q9NWZ3 whole entry): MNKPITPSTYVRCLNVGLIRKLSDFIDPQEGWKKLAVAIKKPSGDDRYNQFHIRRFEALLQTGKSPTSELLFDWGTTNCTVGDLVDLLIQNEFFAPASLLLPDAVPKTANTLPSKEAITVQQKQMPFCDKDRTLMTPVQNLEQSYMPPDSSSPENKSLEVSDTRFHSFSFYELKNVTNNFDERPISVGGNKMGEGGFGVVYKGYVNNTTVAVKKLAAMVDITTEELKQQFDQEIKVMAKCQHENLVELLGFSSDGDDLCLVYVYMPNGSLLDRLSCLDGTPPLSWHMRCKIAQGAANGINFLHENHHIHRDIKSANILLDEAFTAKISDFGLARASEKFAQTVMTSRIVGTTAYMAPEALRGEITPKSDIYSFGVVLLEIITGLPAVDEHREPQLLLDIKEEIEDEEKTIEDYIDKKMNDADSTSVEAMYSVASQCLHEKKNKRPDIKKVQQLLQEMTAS
For assay [2], the target named is T1, IRAK4. The experiment in a line: IRAK4 Biochemical HTRF Kinase Assay. The settings on record: read-out: IRAK4 HTRF biochemical: IC50. A digest of the protocol:
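IC50 values derive from non-linear regression of sixteen concentrations in duplicate. Kinase reaction ran 90 min at ambient temperature after adding 5 μM STK-S1 substrate, 10 mM ATP and 10 mM MgCl2 (reaction-solution levels, pre-dilution to 10 μl); phospho-peptide detected by HTRF after 60 min.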
Target sequence in this assay (Q9NWZ3 whole entry, species assumed): as the sequence (Q9NWZ3 whole entry) above
(In TR-FRET formats the signal depends on donor and acceptor labels being close together.)

Where [3] appears, read: read-out: Cellular IRAK4 HiBiT: Dmax, Table 4.
Where [4] appears, read: read-out: Cellular IRAK4 HiBiT: Dmax, Table 5, multiple runs.

With `CNc1cc(-c2ccc3cc(C#N)cnn23)ncc1-c1nnc([C@H]2CC[C@H](NC(=O)CCCCCC(=O)N[C@H](C(=O)N3C[C@H](O)C[C@H]3C(=O)N[C@@H](C)c3ccc(-c4scnc4C)cc3)C(C)(C)C)CC2)s1` [Example 62, N1-((1r,4S)-4-(5-(6-(3-cyanopyrrolo[1,2-b]pyridazin-7-yl)-4-(methylamino)pyridin-3-yl)-1,3,4-thiadiazol-2-yl)cyclohexyl)-N7—((S)-1-((2S,4R)-4-hydroxy-2-(((S)-1-(4-(4-methylthiazol-5-yl)phenyl)ethyl)carbamoyl)pyrrolidin-1-yl)-3,3-dimethyl-1-oxobutan-2-yl)heptanediamide], the values for the Dmax on IRAK4 [1] (setting [3]) and at IRAK4 [1] (setting [4]) were 103% and 111%, respectively. The half-maximal degradation concentration (DC50) – broadly, the concentration giving 50% degradation – at IRAK4 [1] (Table 4) stood at 74.5 nM; on IRAK4 [1] (Table 5, multiple runs) it was 58.2 nM. In addition, the 50% inhibitory concentration (IC50) (usually the concentration that gives 50% inhibition) was 1.51 nM at IRAK4 [2] (Table 4) and 1.5 nM on IRAK4 [2] (Table 5, multiple runs).

With `CNc1cc(-c2ccc3cc(C#N)cnn23)ncc1-c1nnc([C@H]2CC[C@H](NC(=O)CCOCCNc3ccc4c(c3)C(=O)N(C3CCC(=O)NC3=O)C4=O)CC2)s1` (stereo partly drawn) [Example 63, N-((1r,4r)-4-(5-(6-(3-cyanopyrrolo[1,2-b]pyridazin-7-yl)-4-(methylamino)pyridin-3-yl)-1,3,4-thiadiazol-2-yl)cyclohexyl)-3-(2-((2-(2,6-dioxopiperidin-3-yl)-1,3-dioxoisoindolin-5-yl)amino)ethoxy)propanamide], the results for the Dmax at IRAK4 [1] (setting [3]) and on IRAK4 [1] (setting [4]) were 80% and 85%, respectively. The 50% degradation concentration (DC50) was determined as 8.1 nM at IRAK4 [1] (Table 4) and 7.6 nM on IRAK4 [1] (Table 5, multiple runs). The IC50 stood at 0.7 nM on IRAK4 [2] (Table 4) and 0.6 nM at IRAK4 [2] (Table 5, multiple runs).

For `CNc1cc(-c2ccc3cc(C#N)cnn23)ncc1-c1nnc([C@H]2CC[C@H](NC(=O)CN3CCC4(CC3)CN(c3ccc5c(c3)C(=O)N(C3CCC(=O)NC3=O)C5=O)C4)CC2)s1` (stereo partly drawn) [Example 64, N-((1r,4r)-4-(5-(6-(3-cyanopyrrolo[1,2-b]pyridazin-7-yl)-4-(methylamino)pyridin-3-yl)-1,3,4-thiadiazol-2-yl)cyclohexyl)-2-(2-(2-(2,6-dioxopiperidin-3-yl)-1,3-dioxoisoindolin-5-yl)-2,7-diazaspiro[3.5]nonan-7-yl)acetamide], the results for the Dmax at IRAK4 [1] (setting [3]) and on IRAK4 [1] (setting [4]) were 110% and 112%, respectively. The half-maximal degradation concentration (DC50) at IRAK4 [1] (Table 4) came to 17.3 nM; on IRAK4 [1] (Table 5, multiple runs), 14.9 nM. Also, the IC50 amounted to 0.89 nM at IRAK4 [2] (Table 4) and 0.8 nM on IRAK4 [2] (Table 5, multiple runs).

As for `CNc1cc(-c2ccc3cc(C#N)cnn23)ncc1-c1nnc([C@H]2CC[C@H](NC(=O)CN3CCN(c4ccc5c(c4)C(=O)N(C4CCC(=O)NC4=O)C5=O)CC3)CC2)s1` (stereo partly drawn) [Example 65, N-((1r,4r)-4-(5-(6-(3-cyanopyrrolo[1,2-b]pyridazin-7-yl)-4-(methylamino)pyridin-3-yl)-1,3,4-thiadiazol-2-yl)cyclohexyl)-2-(4-(2-(2,6-dioxopiperidin-3-yl)-1,3-dioxoisoindolin-5-yl)piperazin-1-yl)acetamide], the Dmax – broadly, the greatest extent of degradation seen – stood at 109% at IRAK4 [1] (setting [3]) and 111% at IRAK4 [1] (setting [4]). In addition, the DC50 on IRAK4 [1] (Table 4) was determined as 5.1 nM; at IRAK4 [1] (Table 5, multiple runs) it was 16.9 nM. Also, the 50% inhibitory concentration (IC50) at IRAK4 [2] (Table 4) was found to be 0.95 nM; on IRAK4 [2] (Table 5, multiple runs) it was 0.8 nM.

Regarding `CNc1cc(-c2ccc3cc(C#N)cnn23)ncc1-c1nnc([C@H]2CC[C@H](NC(=O)CCCCCNc3cccc4c3C(=O)N(C3CCC(=O)NC3=O)C4=O)CC2)s1` (stereo partly drawn) [Example 66, N-((1r,4r)-4-(5-(6-(3-cyanopyrrolo[1,2-b]pyridazin-7-yl)-4-(methylamino)pyridin-3-yl)-1,3,4-thiadiazol-2-yl)cyclohexyl)-6-((2-(2,6-dioxopiperidin-3-yl)-1,3-dioxoisoindolin-4-yl)amino)hexanamide], the Dmax on IRAK4 [1] (setting [4]) is 54%. Further, the half-maximal degradation concentration (DC50) on IRAK4 [1] (Table 5, multiple runs) turned out to be 11.2 nM. Besides, the IC50 at IRAK4 [2] (Table 5, multiple runs) was found to be 1.6 nM.

Regarding `CNc1cc(-c2ccc3cc(C#N)cnn23)ncc1-c1nnc([C@H]2CC[C@H](NC(=O)CCCCCCCNc3ccc4c(c3)C(=O)N(C3CCC(=O)NC3=O)C4=O)CC2)s1` (stereo partly drawn) [Example 67, N-((1r,4r)-4-(5-(6-(3-cyanopyrrolo[1,2-b]pyridazin-7-yl)-4-(methylamino)pyridin-3-yl)-1,3,4-thiadiazol-2-yl)cyclohexyl)-8-((2-(2,6-dioxopiperidin-3-yl)-1,3-dioxoisoindolin-5-yl)amino)octanamide], the Dmax amounted to 53% at IRAK4 [1] (setting [3]) and 86% on IRAK4 [1] (setting [4]). For the same molecule, the DC50 turned out to be 10.4 nM on IRAK4 [1] (Table 4) and 45.7 nM at IRAK4 [1] (Table 5, multiple runs). In addition, the IC50 on IRAK4 [2] (Table 4) turned out to be 1.61 nM; at IRAK4 [2] (Table 5, multiple runs), 1.8 nM.

As for `CNc1cc(-c2ccc3cc(C#N)cnn23)ncc1-c1nnc([C@H]2CC[C@H](NC(=O)CCCCCNc3ccc4c(c3)C(=O)N(C3CCC(=O)NC3=O)C4=O)CC2)s1` (stereo partly drawn) [Example 68, N-((1r,4r)-4-(5-(6-(3-cyanopyrrolo[1,2-b]pyridazin-7-yl)-4-(methylamino)pyridin-3-yl)-1,3,4-thiadiazol-2-yl)cyclohexyl)-6-((2-(2,6-dioxopiperidin-3-yl)-1,3-dioxoisoindolin-5-yl)amino)hexanamide], the Dmax stood at 82% at IRAK4 [1] (setting [3]) and 101% at IRAK4 [1] (setting [4]). Further, the half-maximal degradation concentration (DC50) turned out to be 47.5 nM on IRAK4 [1] (Table 4) and 14.3 nM on IRAK4 [1] (Table 5, multiple runs). Moreover, the IC50 on IRAK4 [2] (Table 4) worked out at 1.79 nM; at IRAK4 [2] (Table 5, multiple runs), 0.8 nM.

`CNc1cc(-c2ccc3cc(C#N)cnn23)ncc1-c1nnc([C@H]2CC[C@H](NC(=O)[C@H]3C[C@@H](OCCNc4cccc5c4C(=O)N(C4CCC(=O)NC4=O)C5=O)C3)CC2)s1` (stereo partly drawn) [Example 69, (1s,3S)—N-((1r,4R)-4-(5-(6-(3-cyanopyrrolo[1,2-b]pyridazin-7-yl)-4-(methylamino)pyridin-3-yl)-1,3,4-thiadiazol-2-yl)cyclohexyl)-3-(2-((2-(2,6-dioxopiperidin-3-yl)-1,3-dioxoisoindolin-4-yl)amino)ethoxy)cyclobutane-1-carboxamide]: the Dmax at IRAK4 [1] (setting [3]) worked out at 98%; on IRAK4 [1] (setting [4]), 73%. For the same molecule, the DC50 at IRAK4 [1] (Table 4) is 12.6 nM; at IRAK4 [1] (Table 5, multiple runs), 6.71 nM. Also, the IC50 on IRAK4 [2] (Table 4) turned out to be 0.81 nM; on IRAK4 [2] (Table 5, multiple runs) it was 0.9 nM.

As for `CNc1cc(-c2ccc3cc(C#N)cnn23)ncc1-c1nnc([C@H]2CC[C@H](NC(=O)CCOCCOCCOCCNc3cccc4c3C(=O)N(C3CCC(=O)NC3=O)C4=O)CC2)s1` (stereo partly drawn) [Example 70, N-((1r,4r)-4-(5-(6-(3-cyanopyrrolo[1,2-b]pyridazin-7-yl)-4-(methylamino)pyridin-3-yl)-1,3,4-thiadiazol-2-yl)cyclohexyl)-3-(2-(2-(2-((2-(2,6-dioxopiperidin-3-yl)-1,3-dioxoisoindolin-4-yl)amino)ethoxy)ethoxy)ethoxy)propenamide], the Dmax at IRAK4 [1] (setting [3]) turned out to be 68%; at IRAK4 [1] (setting [4]), 100%. In addition, the half-maximal degradation concentration (DC50) on IRAK4 [1] (Table 4) was 6.3 nM; at IRAK4 [1] (Table 5, multiple runs), 10.8 nM. In addition, the IC50 amounted to 0.86 nM on IRAK4 [2] (Table 4) and 0.8 nM at IRAK4 [2] (Table 5, multiple runs).

As for `CNc1cc(-c2ccc3cc(C#N)cnn23)ncc1-c1nnc([C@H]2CC[C@H](NC(=O)CCOCCNc3cccc4c3C(=O)N(C3CCC(=O)NC3=O)C4=O)CC2)s1` (stereo partly drawn) [Example 71, N-((1r,4r)-4-(5-(6-(3-cyanopyrrolo[1,2-b]pyridazin-7-yl)-4-(methylamino)pyridin-3-yl)-1,3,4-thiadiazol-2-yl)cyclohexyl)-3-(2-((2-(2,6-dioxopiperidin-3-yl)-1,3-dioxoisoindolin-4-yl)amino)ethoxy)propanamide], the Dmax came out at 93% at IRAK4 [1] (setting [3]) and 52% on IRAK4 [1] (setting [4]). Moreover, the half-maximal degradation concentration (DC50) came to 12.9 nM on IRAK4 [1] (Table 4) and 5.87 nM on IRAK4 [1] (Table 5, multiple runs). The concentration for half-maximal inhibition (IC50) on IRAK4 [2] (Table 4) amounted to 0.77 nM; on IRAK4 [2] (Table 5, multiple runs) it was 0.8 nM.

For `CC(C)Nc1cc(-c2ccc3cc(C#N)cnn23)ncc1-c1nnc(N2CCN(CC3CCN(c4ccc5c(=O)n(C6CCC(=O)NC6=O)ccc5c4)CC3)CC2)s1` (stereo not drawn) [Example 72, 7-(5-(5-(4-((1-(2-(2,6-dioxopiperidin-3-yl)-1-oxo-1,2-dihydroisoquinolin-6-yl)piperidin-4-yl)methyl)piperazin-1-yl)-1,3,4-thiadiazol-2-yl)-4-(isopropylamino)pyridin-2-yl)pyrrolo[1,2-b]pyridazine-3-carbonitrile], at IRAK4 [1] (setting [4]), the Dmax amounted to 94%. The DC50 at IRAK4 [1] (Table 5, multiple runs) was 189 nM. Besides, the half-inhibitory concentration (IC50) at IRAK4 [2] (Table 5, multiple runs) is 3.1 nM.

As to `CC(C)Nc1cc(-c2ccc3cc(C#N)cnn23)ncc1-c1nnc(N2CCN(C(=O)C3CCN(C(=O)CNc4cccc5c4C(=O)N(C4CCC(=O)NC4=O)C5=O)CC3)CC2)s1` (stereo not drawn) [Example 73, 7-(5-(5-(4-(1-((2-(2,6-dioxopiperidin-3-yl)-1,3-dioxoisoindolin-4-yl)glycyl)piperidine-4-carbonyl)piperazin-1-yl)-1,3,4-thiadiazol-2-yl)-4-(isopropylamino)pyridin-2-yl)pyrrolo[1,2-b]pyridazine-3-carbonitrile], the Dmax at IRAK4 [1] (setting [4]) was 69%. On IRAK4 [1] (Table 5, multiple runs), the DC50 came to 25.2 nM. Moreover, the IC50 at IRAK4 [2] (Table 5, multiple runs) amounted to 1.9 nM.

Regarding `CC(C)Nc1cc(-c2ccc3cc(C#N)cnn23)ncc1-c1nnc(N2CCN(C3CCN(C(=O)CNc4cccc5c4C(=O)N(C4CCC(=O)NC4=O)C5=O)CC3)CC2)s1` (stereo not drawn) [Example 74, 7-(5-(5-(4-(1-((2-(2,6-dioxopiperidin-3-yl)-1,3-dioxoisoindolin-4-yl)glycyl)piperidin-4-yl)piperazin-1-yl)-1,3,4-thiadiazol-2-yl)-4-(isopropylamino)pyridin-2-yl)pyrrolo[1,2-b]pyridazine-3-carbonitrile], the Dmax on IRAK4 [1] (setting [4]) was 82%. Besides, the DC50 on IRAK4 [1] (Table 5, multiple runs) is 28.9 nM. Also, at IRAK4 [2] (Table 5, multiple runs), the IC50 was 2.5 nM.
